*1 amine or outer side, *2 acyl side, *3 side chain or, on linkers, in order; H or OH if unused. Where a SMILES comes first, the peptide text is derived from it. [ ]: non-standard residue; d: D form. The star is where a group is joined. d(γGlu) = O=C(O)[C@@H](CCC(=O)[*:2])N[*:1]; Ala(3-yl) = N[C@@H](C*)C(=O)O; dLac = C[C@@H](O)C(=O)O

One assay concerns the target T1, murine NOD1 (Mus musculus, UniProt Q8BHB0).
T1 construct: expressed in transfected cells; host or cells: HEK293
T1 sequence (Q8BHB0 1-953): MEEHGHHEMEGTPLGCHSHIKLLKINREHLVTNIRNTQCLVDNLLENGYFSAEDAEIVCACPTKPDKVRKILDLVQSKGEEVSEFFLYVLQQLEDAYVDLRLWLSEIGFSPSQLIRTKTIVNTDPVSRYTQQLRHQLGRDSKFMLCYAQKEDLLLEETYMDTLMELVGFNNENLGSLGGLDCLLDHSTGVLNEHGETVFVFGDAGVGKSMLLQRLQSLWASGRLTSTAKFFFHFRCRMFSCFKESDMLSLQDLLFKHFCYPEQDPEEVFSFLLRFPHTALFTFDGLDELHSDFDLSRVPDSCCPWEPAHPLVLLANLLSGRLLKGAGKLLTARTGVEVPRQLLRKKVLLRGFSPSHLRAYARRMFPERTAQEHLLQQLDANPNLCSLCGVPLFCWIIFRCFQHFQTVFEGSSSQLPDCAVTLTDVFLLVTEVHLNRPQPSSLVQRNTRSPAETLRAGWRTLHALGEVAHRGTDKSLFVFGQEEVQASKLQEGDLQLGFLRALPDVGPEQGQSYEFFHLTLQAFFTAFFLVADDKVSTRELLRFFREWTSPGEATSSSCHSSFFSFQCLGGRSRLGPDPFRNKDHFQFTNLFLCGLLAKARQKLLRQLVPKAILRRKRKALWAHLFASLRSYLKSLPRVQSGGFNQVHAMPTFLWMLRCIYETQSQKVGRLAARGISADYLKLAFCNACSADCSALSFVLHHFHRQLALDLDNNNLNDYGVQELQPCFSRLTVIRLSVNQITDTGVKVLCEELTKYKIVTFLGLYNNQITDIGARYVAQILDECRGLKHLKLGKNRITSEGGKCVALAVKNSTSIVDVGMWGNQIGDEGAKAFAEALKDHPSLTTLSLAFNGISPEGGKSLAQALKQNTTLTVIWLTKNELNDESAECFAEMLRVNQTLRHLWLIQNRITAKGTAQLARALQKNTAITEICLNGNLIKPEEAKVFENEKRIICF
Briefly: NOD1 functional agonist assay, 293mNOD1-SEAP reporter cells. The format is cell-based. The following applies: 293mNOD1 cells, OD above 3*O.D of negative control. The source says: (§1) HEK293 cells were stably transfected with plasmid for the overexpression of the NOD1 genes and a reporter plasmid expressing a secreted embryonic alkaline phosphatase (SEAP) gene under the control of a promoter inducible by the transcription factors NF-κB and AP-1. These cells are referred herein as 293hNOD1-SEAP (for cells overexpressing the human NOD1 gene) and 293mNOD1-SEAP (for cells overexpressing the murine NOD1 gene). Upon NOD1 stimulation, these cells induce the activation of NF-κB and AP-1 and subsequently the secretion of SEAP. The reporter protein is easily detectable and measurable when using QUANTI-Blue™ (InvivoGen, San Diego, Calif.), a medium that turns purple/blue in the presence of SEAP.
(§2) The biological activity of the compounds of the invention tested using 293hNOD1 and 293mNOD1 cells. SEAP expression was measured using the commercially available SEAP detection kit (HEK-Blue™ Detection, InvivoGen). The SEAP activity in cells was quantified using the microplate reader (FLUOStar OPTIMA, BMG laboratories), the absorbance values were read using filter with excitation at 620 nm and emission at 655 nm. The results provided in Table 2 were expressed as the concentration were a significant mean optical density (OD) can be observed (above 3*O.D of negative control). As a positive control, the NOD1 pathway was stimulated with commercially available iE-DAP (InvivoGen) and C12-iE-DAP (an acylated derivative of DAP; InvivoGen). As a negative control endotoxin-free water was used. Additionally, 293 cells expressing the SEAP gene but not the NOD1 gene were used as a control.

The next assay deals with T2, human NOD1 (Homo sapiens, UniProt Q9Y239).
T2 construct: expressed in transfected cells; host or cells: HEK293
T2 sequence (Q9Y239 1-953): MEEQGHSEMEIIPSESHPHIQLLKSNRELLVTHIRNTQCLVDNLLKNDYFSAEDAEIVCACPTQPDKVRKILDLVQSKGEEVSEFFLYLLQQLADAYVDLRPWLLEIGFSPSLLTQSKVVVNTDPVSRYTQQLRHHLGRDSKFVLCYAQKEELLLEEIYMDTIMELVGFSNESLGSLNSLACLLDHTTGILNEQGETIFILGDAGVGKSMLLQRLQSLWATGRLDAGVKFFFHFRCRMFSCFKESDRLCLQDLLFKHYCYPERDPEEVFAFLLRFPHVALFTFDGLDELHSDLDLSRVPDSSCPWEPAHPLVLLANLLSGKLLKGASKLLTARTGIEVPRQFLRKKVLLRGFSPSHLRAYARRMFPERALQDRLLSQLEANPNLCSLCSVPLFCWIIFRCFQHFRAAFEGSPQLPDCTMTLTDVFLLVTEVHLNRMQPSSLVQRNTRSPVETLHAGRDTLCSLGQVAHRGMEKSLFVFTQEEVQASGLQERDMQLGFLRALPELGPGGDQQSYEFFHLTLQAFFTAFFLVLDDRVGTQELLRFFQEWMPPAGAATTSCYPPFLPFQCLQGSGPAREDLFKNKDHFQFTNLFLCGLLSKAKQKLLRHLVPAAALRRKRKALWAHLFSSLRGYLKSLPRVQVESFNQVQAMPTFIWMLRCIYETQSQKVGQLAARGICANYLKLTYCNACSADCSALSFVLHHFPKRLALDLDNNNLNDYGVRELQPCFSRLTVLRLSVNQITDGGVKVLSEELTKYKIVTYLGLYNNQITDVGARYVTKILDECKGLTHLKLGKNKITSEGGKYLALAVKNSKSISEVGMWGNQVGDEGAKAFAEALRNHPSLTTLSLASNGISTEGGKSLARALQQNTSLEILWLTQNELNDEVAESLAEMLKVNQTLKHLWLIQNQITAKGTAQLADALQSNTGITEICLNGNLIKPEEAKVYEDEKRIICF
Briefly: NOD1 functional agonist assay, 293hNOD1-SEAP reporter cells. The following applies: 293hNOD1 cells, OD above 3*O.D of negative control. The format is cell-based.
Description: as §1, §2

On to `C[C@H](NC(=O)[C@@H](C)O)C(=O)N[C@H](CCC(=O)N[C@H](CSC[C@H](N)C(=O)O)C(=O)NCC(=O)O)C(=O)O` [Example 30, N^5-((S)-3-(((R)-2-amino-2-carboxyethyl)thio)-1-((carboxymethyl)amino)-1-oxopropan-2-yl)-N^2-(((R)-2-hydroxypropanoyl)-L-alanyl)-D-glutamine] (H-[dLac]A[d(γGlu)][dC](Ala(3-yl))G-OH), for which the “mNod1: concentration where a significant mean optical density (OD) can be observed” value on murine NOD1 came to 10 µg/mL. Further, the “hNod1: concentration where a significant mean optical density (OD) can be observed” value on human NOD1 worked out at 10 µg/mL.
Take `CCCCCCCCCCCC(=O)N[C@H](CCC(=O)N[C@H](CSC[C@H](N)C(=O)O)C(=O)O)C(=O)O` [Example 3, N^5-((S)-2-(((R)-2-amino-2-carboxyethyl)thio)-1-carboxyethyl)-N^2-dodecanoyl-D-glutamine]: at murine NOD1, the “mNod1: concentration where a significant mean optical density (OD) can be observed” value turned out to be 0.1 µg/mL. Also, the “hNod1: concentration where a significant mean optical density (OD) can be observed” value at human NOD1 worked out at 0.01 µg/mL.
For `C[C@H](N)C(=O)N[C@H](CCC(=O)N[C@H](CSC[C@H](N)C(=O)O)C(=O)NCC(=O)O)C(=O)O` [Example 26, N^2-(L-alanyl)-N^5-((S)-3-(((R)-2-amino-2-carboxyethyl)thio)-1-((carboxymethyl)amino)-1-oxopropan-2-yl)-D-glutamine] the same measures were 0.1 µg/mL and 10 µg/mL.
For `CCCCCCCCCCCCCC(=O)N[C@H](CCC(=O)N[C@H](CSC[C@H](N)C(=O)O)C(=O)NCC(=O)O)C(=O)O` [Example 25, N^5-((S)-3-(((R)-2-amino-2-carboxyethyl)thio)-1-((carboxymethyl)amino)-1-oxopropan-2-yl)-N^2-tetradecanoyl-D-glutamine], on murine NOD1, the “mNod1: concentration where a significant mean optical density (OD) can be observed” value was determined as 0.01 µg/mL. At human NOD1, the “hNod1: concentration where a significant mean optical density (OD) can be observed” value is 0.01 µg/mL.
On to `CCCCCCCCCCCCCC(=O)N[C@H](CCC(=O)N[C@H](CSC[C@H](N)C(=O)O)C(=O)N[C@H](C)C(=O)O)C(=O)O` [Example 17, N^5-((S)-3-(((R)-2-amino-2-carboxyethyl)thio)-1-(((R)-1-carboxyethyl)amino)-1-oxopropan-2-yl)-N^2-tetradecanoyl-D-glutamine], for which, on murine NOD1, the “mNod1: concentration where a significant mean optical density (OD) can be observed” value stood at 0.001 µg/mL. At human NOD1, the “hNod1: concentration where a significant mean optical density (OD) can be observed” value amounted to 0.01 µg/mL.
For `CCCCCCC(=O)N[C@H](CCC(=O)N[C@H](CSC[C@H](N)C(=O)O)C(=O)O)C(=O)O` [Example 2, N^5-((S)-2-(((R)-2-amino-2-carboxyethyl)thio)-1-carboxyethyl)-N^2-heptanoyl-D-glutamine], the “mNod1: concentration where a significant mean optical density (OD) can be observed” value on murine NOD1 is 1 µg/mL. Also, the “hNod1: concentration where a significant mean optical density (OD) can be observed” value at human NOD1 stood at 0.1 µg/mL.
Regarding `C[C@H](N)C(=O)N[C@H](CCC(=O)N[C@H](CSC[C@H](N)C(=O)O)C(=O)N[C@H](C)C(=O)O)C(=O)O` [Example 18, N^2-(L-alanyl)-N^5-((S)-3-(((R)-2-amino-2-carboxyethyl)thio)-1-(((R)-1-carboxyethyl)amino)-1-oxopropan-2-yl)-D-glutamine], the “mNod1: concentration where a significant mean optical density (OD) can be observed” value on murine NOD1 turned out to be 1 µg/mL. In addition, the “hNod1: concentration where a significant mean optical density (OD) can be observed” value at human NOD1 came to 1 µg/mL.
In the case of `N[C@@H](CSC[C@@H](NC(=O)CC[C@@H](NC(=O)[C@@H](N)Cc1ccccc1)C(=O)O)C(=O)O)C(=O)O` [Example 9, N^2-(L-phenylalanyl)-N^5-((S)-2-(((R)-2-amino-2-carboxyethyl)thio)-1-carboxyethyl)-D-glutamine], the “mNod1: concentration where a significant mean optical density (OD) can be observed” value at murine NOD1 came out at 10 µg/mL. The “hNod1: concentration where a significant mean optical density (OD) can be observed” value at human NOD1 was determined as 10 µg/mL.
Consider `CCCCCCCCCCCC(=O)N[C@H](CCC(=O)N[C@H](CSC[C@H](N)C(=O)O)C(=O)NCC(=O)O)C(=O)O` [Example 24, N^5-((S)-3-(((R)-2-amino-2-carboxyethyl)thio)-1-((carboxymethyl)amino)-1-oxopropan-2-yl)-N^2-dodecanoyl-D-glutamine], for which the “mNod1: concentration where a significant mean optical density (OD) can be observed” value on murine NOD1 is 0.01 µg/mL. At human NOD1, the “hNod1: concentration where a significant mean optical density (OD) can be observed” value was 0.01 µg/mL.
For the compound `C[C@H](N)C(=O)N[C@H](CCC(=O)N[C@@H](COC[C@@H](N)C(=O)O)C(=O)O)C(=O)O` [Example 36, N^2-(L-alanyl)-N^5-((S)-2-((R)-2-amino-2-carboxyethoxy)-1-carboxyethyl)-D-glutamine], on murine NOD1, the “mNod1: concentration where a significant mean optical density (OD) can be observed” value is 100 µg/mL. In addition, the “hNod1: concentration where a significant mean optical density (OD) can be observed” value at human NOD1 is 100 µg/mL.
Regarding `CC(C)C[C@H](N)C(=O)N[C@H](CCC(=O)N[C@H](CSC[C@H](N)C(=O)O)C(=O)O)C(=O)O` [Example 6, N^2-(L-leucyl)-N^5-((S)-2-(((R)-2-amino-2-carboxyethyl)thio)-1-carboxyethyl)-D-glutamine], on murine NOD1, the “mNod1: concentration where a significant mean optical density (OD) can be observed” value turned out to be 1 µg/mL. Moreover, the “hNod1: concentration where a significant mean optical density (OD) can be observed” value at human NOD1 was determined as 0.1 µg/mL.
`C[C@@H](NC(=O)[C@@H](CSC[C@H](N)C(=O)O)NC(=O)CC[C@@H](N)C(=O)O)C(=O)O` [Example 14, N^5-((S)-3-(((R)-2-amino-2-carboxyethyl)thio)-1-(((R)-1-carboxyethyl)amino)-1-oxopropan-2-yl)-D-glutamine]: the “mNod1: concentration where a significant mean optical density (OD) can be observed” value on murine NOD1 worked out at 10 µg/mL. The “hNod1: concentration where a significant mean optical density (OD) can be observed” value at human NOD1 stood at 1 µg/mL.
For `CCCCCCCCCCCCCC(=O)N[C@@H](CC(C)C)C(=O)N[C@H](CCC(=O)N[C@H](CSC[C@H](N)C(=O)O)C(=O)O)C(=O)O` [Example 10, N^5-((S)-2-(((R)-2-amino-2-carboxyethyl)thio)-1-carboxyethyl)-N^2-(tetradecanoyl-L-leucyl)-D-glutamine], the “mNod1: concentration where a significant mean optical density (OD) can be observed” value on murine NOD1 was 0.1 µg/mL. Further, on human NOD1, the “hNod1: concentration where a significant mean optical density (OD) can be observed” value came to 0.001 µg/mL.
